The target in one experiment is T1, LXRβ (Homo sapiens, UniProt P55055).
T1 construct: To measure the activity of the remaining isoform under treatment; endogenous in cells; host or cells: Hep3B (NR1H3 knockout, LXRE-GFP reporter)
T1 sequence (P55055 1-460): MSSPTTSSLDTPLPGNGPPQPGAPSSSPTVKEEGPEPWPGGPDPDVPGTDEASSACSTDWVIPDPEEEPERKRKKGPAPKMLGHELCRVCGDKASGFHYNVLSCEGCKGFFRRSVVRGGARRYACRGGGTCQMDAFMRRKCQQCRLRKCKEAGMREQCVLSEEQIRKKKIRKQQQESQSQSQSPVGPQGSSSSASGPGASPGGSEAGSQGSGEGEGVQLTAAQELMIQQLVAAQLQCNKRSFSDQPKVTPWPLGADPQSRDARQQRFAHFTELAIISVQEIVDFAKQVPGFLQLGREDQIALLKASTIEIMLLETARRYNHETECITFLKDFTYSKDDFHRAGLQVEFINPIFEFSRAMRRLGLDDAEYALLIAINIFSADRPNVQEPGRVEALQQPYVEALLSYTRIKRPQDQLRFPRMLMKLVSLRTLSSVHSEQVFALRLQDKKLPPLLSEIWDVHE
Put plainly: LXRβ-specific LXRE-GFP reporter assay in Hep3B cells (NR1H3 knockout). In kind it is cell-based. Conditions: 48h of treatment, GFP by FACS. (In a reporter assay the amount or activity of a reporter protein is the signal.)

Another experiment concerns the target T2, LXRα (Homo sapiens, UniProt Q13133).
T2 construct: To measure the activity of the remaining isoform under treatment; endogenous in cells; host or cells: Hep3B (NR1H2 knockout, LXRE-GFP reporter)
T2 sequence (Q13133 1-447): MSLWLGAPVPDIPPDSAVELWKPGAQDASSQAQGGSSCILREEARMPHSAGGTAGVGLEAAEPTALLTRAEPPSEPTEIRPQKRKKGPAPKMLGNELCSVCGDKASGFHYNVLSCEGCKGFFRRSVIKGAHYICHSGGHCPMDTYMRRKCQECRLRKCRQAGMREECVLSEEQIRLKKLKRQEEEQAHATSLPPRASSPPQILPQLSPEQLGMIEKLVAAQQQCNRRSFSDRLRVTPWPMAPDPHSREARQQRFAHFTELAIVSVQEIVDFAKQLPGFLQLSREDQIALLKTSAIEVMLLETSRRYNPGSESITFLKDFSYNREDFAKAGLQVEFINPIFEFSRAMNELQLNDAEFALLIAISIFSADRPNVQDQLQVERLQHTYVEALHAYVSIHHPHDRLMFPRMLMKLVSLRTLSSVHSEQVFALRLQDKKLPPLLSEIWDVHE
Put plainly: LXRα-specific LXRE-GFP reporter assay in Hep3B cells (NR1H2 knockout). Conditions: 48h of treatment, GFP by FACS. Type of experiment: cell-based.

Broadly, the EC50 is the concentration that produces a half-maximal response. The low end stands for a more potent agent, the high end for a less potent agent.

The structures appear in SMILES notation.

With `O=C1C(Nc2ccc(N3CCCCC3)cc2)=C(c2ccccc2)C(=O)N1Cc1ccccc1` [Compound 40, 1-Benzyl-3-phenyl-4-((4-(piperidin-1-yl)phenyl)amino)-1H-pyrrole-2,5-dione], the EC50 at LXRβ amounted to 631 nM; on LXRα, 27 nM.
